Several values for one entry are separate records, joined by “and”; a condition that tells them apart may be missing. Equal values may be shown once. Read-outs that look alike come from different tables or passages of the source.
Columns and labels:
[1] = Reflection tests of polarity of liposomes (Test Example 3); type: physicochemical; details: for fluorescence wavelength (peaks): DOPC liposomes; for maximum fluorescence wavelength: DPPC liposomes
Method: Three kinds of liposomes having different fluidity (polarity) were prepared to examine how much the two-photon dyes prepared in Example 1 and Comparative Example 1 reflected the polarity of the liposomes. Specifically, DOPC liposomes were prepared from 1,2-dioleoyl-sn-glycerol-3-phosphocholine (DOPC) having unsaturated fatty acids so as to reflect the fluidity of phospholipids of plasma membranes. The DOPC liposomes were relatively fluid. DOPC/Sphingo/Chol liposomes were composed of DOPC, sphingomyelin and cholesterol in the same ratio so as to simultaneously reflect phospholipids and lipid rafts. DPPC liposomes were prepared from 1,2-dipalmitoyl-sn-glycerol-3-phosphocholine (DPPC) so as to reflect lipid rafts. The DPPC liposomes were in a gel state and had lowest fluidity. Next, the three kinds of liposomes were stained with Laurdan and TPD1, and their spectral properties were examined. Referring to FIGS. 3a (Laurdan) and 3b (TPD1), the maximum one-photon absorption wavelengths of Laurdan and TPD1 were in the range of 360-395 nm, regardless of the kind of the liposomes. However, the fluorescence intensity of the liposomes increased with the hydrophobicity of the liposomes in the order: DOPC<DOPC/Sphingo/Chol<DPPC. […] Referring to FIG. 3c, the maximum fluorescence wavelength of Laurdan in DPPC is 440 nm and the fluorescence spectrum of Laurdan in DOPC is broader.
In the meanwhile, the fluorescence wavelength bands of Laurdan in DOPC/Sphingo/Chol and DPPC were confirmed to overlap almost completely. […] In contrast, TPD1 prepared in Example 1 emitted fluorescence of 442 nm in DPPC and fluorescence of 486 nm in DOPC (FIG. 3d). In addition, the fluorescence spectrum of TPD1 in the DOPC/Sphingo/Chol liposomes is broad and almost the same as the sum of the spectra in the DPPC and DOPC liposomes.
On the other hand, the different kinds of liposomes were stained with TPD4 prepared in Example 4, and their fluorescence spectra were examined. Referring to FIG. 4, the fluorescence intensity of the fluid DOPC liposomes (in a hydrophilic environment) was ⅛ of that of the DPPC liposomes and about 1/6.5 of that of the DOPC/Sphingo/Chol liposomes.

[2] = Spectroscopic measurements of the dyes in four solvents (Test Example 2); type: physicochemical; details: for quantum yield in water relative to that in ethanol: water versus ethanol
Method: The two-photon dyes prepared in Example 1 and Comparative Example 1 were dissolved in four solvents (hexane, DMF, ethanol and water), respectively. The one-photon maximum absorption wavelength (λmax), one-photon maximum emission wavelength (λ^f1max), two-photon maximum absorption wavelength (λ^(2)max), quantum yield (Φ) and two-photon absorption efficiency (δmax) of the solutions were measured, and the results are shown in Table 1. The absorption spectra were measured on a Hewlett-Packard 8453 diode array spectrophotometer. The fluorescence spectra were obtained with an Aminco Bowman series 2 luminescence spectrometer. The two-photon absorption efficiency means a maximum value of a two-photon cross section (δTPA). The two-photon cross section can be calculated by the following equation 1: […]
wherein the subscripts s and r represent sample and reference molecules, respectively, δ represents the two-photon cross section, S represents the strength of signals collected by a CCD detector, Φ represents the fluorescence quantum efficiency, φ represents the total fluorescence collection efficiency of an experimental system, c represents the number density of the molecules within each of the solutions, and δr represents the two-photon cross section of reference molecules.

[3] = Reflection tests of polarity of solvents, fluorescence spectra (Test Example 1); type: physicochemical
Method: Time-resolved fluorescence (TRF) spectra of the two-photon dyes prepared in Comparative Example 1 and Example 1 were measured to examine changes in the one-photon fluorescence wavelength of the dyes according to the polarity of solvents. In this test, hexane, DMF, ethanol and water were used as solvents. The polarity of the solvents increases in the order: hexane<DMF<ethanol<water. […] Since Laurdan has a long hydrocarbon tail, the dye molecules surrounded by the adjacent dye molecules were placed in a hydrophobic environment, and as a result, a blue shift was observed. […] From these observations, it can be concluded that Laurdan is not suitable for use in real-time imaging of lipid rafts.
On the other hand, time-resolved fluorescence (TRF) spectra of the two-photon dye (TPD4) prepared in Example 4 were measured to examine changes in the one-photon fluorescence wavelength of the dye according to the polarity of solvents. In this test, THF, DMF, ethanol and ethanol/water were used as solvents. The polarity of the solvents increases in the order: THF<DMF<ethanol<ethanol/water. […] As mentioned previously, the reason for this is because the fluorescence quantum yield and fluorescence lifetime of TPD4 in a hydrophilic environment were decreased drastically. Therefore, lipid rafts can be directly observed due to the difference in fluorescence intensity.

[4] = tested on: A431 cells; assay: Cytotoxicity test, MTT assay (Test Example 7); type: cell-based; details: 1×10^−5 M, DMSO (1%) reference, incubation for 6 hours
Text: To evaluate whether the two-photon dyes of the present invention are cytotoxic or not, MTT assay was done on the two-photon dye prepared in Example 1. Specifically, A431 cells were stained with TPD1 (1×10^−5 M) and DMSO (1%) was used as a reference solvent. […] Therefore, it can be concluded that the two-photon dye of the present invention is suitable for imaging of living cells.

[5] = cited from earlier work

Compound	fluorescence wavelength (peaks) [1]	maximum fluorescence wavelength [1] [nm]	Φ (quantum yield) ([2]; solvent DMF)	δmax (two-photon absorption efficiency) ([2]; solvent DMF) [GM]	λ^(2)max (two-photon maximum absorption wavelength) ([2]; solvent DMF)	λ^flmax (one-photon maximum emission wavelength) ([2]; solvent DMF)	λmax (one-photon maximum absorption wavelength) ([2]; solvent DMF)	Φ (quantum yield) ([2]; solvent ethanol)	δmax (two-photon absorption efficiency) ([2]; solvent ethanol) [GM]	λ^(2)max (two-photon maximum absorption wavelength) ([2]; solvent ethanol)	λ^flmax (one-photon maximum emission wavelength) ([2]; solvent ethanol)	λmax (one-photon maximum absorption wavelength) ([2]; solvent ethanol)	Φ (quantum yield) ([2]; solvent hexane)	λ^flmax (one-photon maximum emission wavelength) ([2]; solvent hexane)	λmax (one-photon maximum absorption wavelength) ([2]; solvent hexane)	Φ (quantum yield) ([2]; solvent water)	λ^flmax (one-photon maximum emission wavelength) ([2]; solvent water)	λmax (one-photon maximum absorption wavelength) ([2]; solvent water)	quantum yield in water relative to that in ethanol [2]	further results
CCCCCCCCCCCC(=O)c1ccc2cc(N(C)CC(=O)O)ccc2c1 [TPD1]	486 nm	442	0.36	167	780	446	363	0.43	153	780	494	383	0.10	404	345	0.11	522	384	¼	fluorescence intensity relative to Laurdan ([1]; in all liposomes): 2-5 times; two-photon absorption efficiency relative to the dye of Comparative Example 1 [2]: about three to six times; two-photon absorption efficiency, maximum ([2]; over the solvents): 323 GM; two-photon absorption efficiency, minimum ([2]; over the solvents): 153 GM; δmax (two-photon absorption efficiency) ([2]; solvent water): 323 GM; λ^(2)max (two-photon maximum absorption wavelength) ([2]; solvent water): 820; maximum fluorescence wavelength as the polarity of the solvents increased ([3]; hexane<DMF<ethanol<water): increased; cytotoxicity (cell viability, MTT) versus reference solvent [4]: no significant difference in cytotoxicity
CCCCCCCCCCCC(=O)c1ccc2cc(N(C)C)ccc2c1 [Laurdan, reference compound]	439 nm and 484 nm	440	1.00	50	780	454	356	1.00	57	780	487	363	0.11	407	344	0.01	431	354	1/100	solubility in water ([3]; water): substantially insoluble in water; wavelength of light emitted in water ([3]; water): 400-460 nm; maximum fluorescence wavelength in water with the highest polarity ([3]; water versus less polar solvents): decreased (i.e. blue-shifted); fluorescence emitted in lipid raft domains in a hydrophobic environment ([5]; cell membranes): 400 to 460 nm; fluorescence emitted in phospholipid domains in a hydrophilic environment ([5]; cell membranes): 470 to 530 nm; fluorescence emitted by the precipitate ([5]; water): 450 nm; solubility in water ([5]; water): barely soluble in water
CCCCCCCCCC(=O)/C=C/c1ccc2cc(N(C)CC(=O)OC(C)(C)C)ccc2c1 [TPD4]																				fluorescence intensity of DOPC liposomes relative to DPPC liposomes ([1]; stained liposomes): ⅛; fluorescence intensity as the polarity of the solvents increased ([3]; THF<DMF<ethanol<ethanol/water): reduced drastically
